Patent US20050170015A1 (priority 2000, published 2005)

Experiments:
[1] = Ex# E048; oral 40 mg/kg; 0/8 tumors
[2] = test system: RIF-1 murine fibrosarcoma; experiment: RIF-1 tumor growth delay, thiocolchicine alone and with cisplatin, camptothecin or amonafide (Example 6); assay type: in vivo, C3H mice
Procedure: Cisplatin for Injection, USP, was obtained as the commercial product from Bristol Laboratories (Platinol®, Lot No. K1F26A). Camptothecin was obtained from Boehinger-Ingelheim Lot 142088. Amonafide dihydrochloride was prepared in house, in a solution of 20 mg/ml. 0.9% Sodium Chloride for Injection, USP (saline) was manufactured by Abbott Laboratories (Lot No. 55-199-DK). Sterile Water for Injection, USP (WFI) was manufactured by Lyphomed, Inc. (Lot No. 390849). DMSO was obtained from Sigma (St. Louis, Mo.). DMF (dimethylformamide) was obtained from Sigma (St. Louis, Mo.). PEG400 was obtained from Sigma (St. Louis, Mo.).
For preparation of cisplatin formulation, the contents of a 10-mg vial of lyophilized CDDP (Cisplatin for Injection) was resuspended with 10 mL WFI to produce a 1 mg/mL CDDP suspension.
Camptothecin was prepared in a solution of DMSO at 0.75 mg/ml.
This was further diluted using saline to […].
Amonafide was diluted to 15 mg/ml with saline.
Food and water were available ad libitum.
Tumors: The RIF-1 murine fibrosarcoma cell line was maintained in in vitro culture (Wayrnouth medium supplemented with 20% fetal bovine serum) at 37° C. in a humidified 5% CO2 incubator. Log-phase RIF-1 cells were trypsinized and harvested from cell culture flasks to yield a concentration of 4×10^6 cells/mL, then injected intradermally in a volume of 50 μL (equivalent to 2×10^5 cells per injection) into both flanks of each mouse. Nine days later, when tumors reached approximately 100 mm^3 in size, the animals were randomized to different treatment groups.
Evaluation of Tumor Growth Delay: Tumors were measured three times weekly for up to 22 days with Vernier calipers. Tumor volume (cubic millimeters, mm^3) was calculated according to the formula: [formula] in which D1-3 are perpendicular diameters measured in millimeters (mm). Tumor volume quadrupling time (TVQT), defined as the time required for a tumor to grow to four times (4×) its initial volume (at the time of treatment), was used as a study endpoint.
The TVQT was determined for each treatment group and expressed in days as the mean±standard error (SE).

[3] = Ex# E031, IP 4 mg/kg, 4/8 tumors
[4] = Ex# E048, oral 20 mg/kg, 12/16 tumors

**Q.** Which “Mortality (printed in the Days to 4× column)” value [1] does the source give for `COc1cc2c(c(OC)c1OC)-c1ccc(SC)c(=O)cc1[C@@H](NC(C)=O)CC2` [Thiocolchicine, (S)-N-[5,6,7,9-Tetrahydro-1,2,3-trimethoxy-10-(methylthio)-9-oxobenzo[a]heptalen-7-yl]-acetamide] here?
**A.** All Died

**Q.** What about the “Days to 4× (ave ± SE)” value ([2]; Ex# E031, IP 1 mg/kg) of the same molecule?
**A.** 8.7 ± 0.4 days

**Q.** What about the “Days to 4× Median” value ([2]; Ex# E031, IP 1 mg/kg) of the same molecule?
**A.** 8.7 days

**Q.** And the “Delay” value ([2]; Ex# E031, IP 1 mg/kg)?
**A.** 2.08 days

**Q.** And the T/C ([2]; Ex# E031, IP 1 mg/kg)?
**A.** 1.3

**Q.** And the “Days to 4× (ave ± SE)” value ([2]; Ex# E031, IP 2 mg/kg)?
**A.** 8.9 ± 0.9 days

**Q.** What about the “Days to 4× Median” value ([2]; Ex# E031, IP 2 mg/kg) of the same molecule?
**A.** 8.1 days

**Q.** And the “Delay” value ([2]; Ex# E031, IP 2 mg/kg)?
**A.** 1.48 days

**Q.** What about the T/C ([2]; Ex# E031, IP 2 mg/kg) of the same molecule?
**A.** 1.3

**Q.** What about the “Days to 4× (ave ± SE)” value [2, 3] of the same molecule?
**A.** 13.2 ± 1.2 days

**Q.** And the “Days to 4× Median” value [2, 3]?
**A.** 13.4 days

**Q.** What about the “Delay” value [2, 3] of the same molecule?
**A.** 6.77 days

**Q.** What about the T/C [2, 3] of the same molecule?
**A.** 2.0

**Q.** And the “Days to 4× (ave ± SE)” value ([2]; Ex# E047, IP 1 mg/kg)?
**A.** 10.88 ± 1.43 days

**Q.** And the “Days to 4× Median” value ([2]; Ex# E047, IP 1 mg/kg)?
**A.** 10.13 days

**Q.** What about the “Delay” value ([2]; Ex# E047, IP 1 mg/kg) of the same molecule?
**A.** 2.57 days

**Q.** And the T/C ([2]; Ex# E047, IP 1 mg/kg)?
**A.** 1.4

**Q.** What about the “Days to 4× (ave ± SE)” value ([2]; Ex# E047, IP 1 × 2 mg/kg) of the same molecule?
**A.** 12.49 ± 0.52 days

**Q.** What about the “Days to 4× Median” value ([2]; Ex# E047, IP 1 × 2 mg/kg) of the same molecule?
**A.** 13.16 days

**Q.** And the “Delay” value ([2]; Ex# E047, IP 1 × 2 mg/kg)?
**A.** 5.60 days

**Q.** And the T/C ([2]; Ex# E047, IP 1 × 2 mg/kg)?
**A.** 1.7

**Q.** What about the “Days to 4× (ave ± SE)” value ([2]; Ex# E047, Oral 10 mg/kg) of the same molecule?
**A.** 11.78 ± 2.08 days

**Q.** And the “Days to 4× Median” value ([2]; Ex# E047, Oral 10 mg/kg)?
**A.** 9.11 days

**Q.** What about the “Delay” value ([2]; Ex# E047, Oral 10 mg/kg) of the same molecule?
**A.** 1.56 days

**Q.** And the T/C ([2]; Ex# E047, Oral 10 mg/kg)?
**A.** 1.6

**Q.** What about the “Days to 4× (ave ± SE)” value ([2]; Ex# E047, Oral 10 × 2 mg/kg) of the same molecule?
**A.** 13.65 ± 1.60 days

**Q.** What about the “Days to 4× Median” value ([2]; Ex# E047, Oral 10 × 2 mg/kg) of the same molecule?
**A.** 13.29 days

**Q.** What about the “Delay” value ([2]; Ex# E047, Oral 10 × 2 mg/kg) of the same molecule?
**A.** 5.73 days

**Q.** And the T/C ([2]; Ex# E047, Oral 10 × 2 mg/kg)?
**A.** 1.8

**Q.** And the “Days to 4× (ave ± SE)” value ([2]; Ex# E048, oral 10 mg/kg)?
**A.** 10.14 ± 1.15 days

**Q.** What about the “Days to 4× Median” value ([2]; Ex# E048, oral 10 mg/kg) of the same molecule?
**A.** 9.01 days

**Q.** What about the “Delay” value ([2]; Ex# E048, oral 10 mg/kg) of the same molecule?
**A.** 2.77 days

**Q.** And the T/C ([2]; Ex# E048, oral 10 mg/kg)?
**A.** 1.6

**Q.** What about the “Days to 4× (ave ± SE)” value [2, 4] of the same molecule?
**A.** 12.34 ± 0.75 days

**Q.** What about the “Days to 4× Median” value [2, 4] of the same molecule?
**A.** 11.52 days

**Q.** What about the “Delay” value [2, 4] of the same molecule?
**A.** 5.28 days

**Q.** What about the T/C [2, 4] of the same molecule?
**A.** 1.9
